In PMC7948982, “Dissecting the low catalytic capability of flavin-dependent halogenases” (The Journal of Biological Chemistry, 2020):

Columns and labels:
[1] = molecular target: T1, Thal (tryptophan 6-halogenase) (Streptomyces albogriseolus, UniProt A1E280); assay: X-ray crystal structure, […] Å; format: binding; settings: crystal soak with FAD, tryptophan and dithionite; flavin site
T1 construct: recombinant, E. coli BL21(DE3), pET28b; tag residues seen in 7CU1; two protomers per asymmetric unit; GFP11 C-terminal tag only in the mutant library screen
T1 sequence (A1E280 whole entry): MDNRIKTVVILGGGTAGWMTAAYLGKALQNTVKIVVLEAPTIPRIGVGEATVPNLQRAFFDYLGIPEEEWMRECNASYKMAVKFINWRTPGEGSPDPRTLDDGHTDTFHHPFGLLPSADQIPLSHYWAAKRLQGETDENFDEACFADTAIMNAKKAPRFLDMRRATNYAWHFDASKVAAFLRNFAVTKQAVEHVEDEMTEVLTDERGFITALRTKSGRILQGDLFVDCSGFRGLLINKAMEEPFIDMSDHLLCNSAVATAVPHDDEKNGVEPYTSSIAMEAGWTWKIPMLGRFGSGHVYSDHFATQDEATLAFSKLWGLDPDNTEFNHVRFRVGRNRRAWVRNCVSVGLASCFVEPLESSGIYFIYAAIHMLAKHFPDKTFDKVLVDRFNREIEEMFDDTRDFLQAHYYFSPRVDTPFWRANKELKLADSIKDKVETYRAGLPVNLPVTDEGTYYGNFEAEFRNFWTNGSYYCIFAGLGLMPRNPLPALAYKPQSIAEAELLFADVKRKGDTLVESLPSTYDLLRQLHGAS

[2] = molecular target: T2, Thal (tryptophan 6-halogenase) (Streptomyces albogriseolus, UniProt A1E280, K79T); assay: stopped-flow absorbance at […] and […] nm, C4a-hydroperoxyflavin formation; format: biochemical; settings: 30 μM enzyme, 15 μM FADH-, air-saturated buffer; 20 mM potassium phosphate pH 7.2, 25 °C
T2 construct: recombinant, E. coli BL21(DE3), pET28b; tag residues seen in 7CU1; two protomers per asymmetric unit; GFP11 C-terminal tag only in the mutant library screen
T2 sequence (A1E280 whole entry K79T): as the sequence (A1E280 whole entry) above, with K79T counted along it

[3] = molecular target: T1, Thal (tryptophan 6-halogenase); assay: X-ray crystal structure, […] Å; format: binding; settings: apo crystals soaked with FAD and Trp for 7 days, 25 °C
[4] = molecular target: T3, PyrH (tryptophan 5-halogenase) (Streptomyces rugosporus, UniProt A4D0H5); assay: stopped-flow fluorescence, C4a-hydroxyflavin formation; format: biochemical; settings: with C4a-hydroperoxyflavin enzyme; pH 7.2, 25 °C
T3 construct: construct and source details not given
T3 sequence (A4D0H5 whole entry): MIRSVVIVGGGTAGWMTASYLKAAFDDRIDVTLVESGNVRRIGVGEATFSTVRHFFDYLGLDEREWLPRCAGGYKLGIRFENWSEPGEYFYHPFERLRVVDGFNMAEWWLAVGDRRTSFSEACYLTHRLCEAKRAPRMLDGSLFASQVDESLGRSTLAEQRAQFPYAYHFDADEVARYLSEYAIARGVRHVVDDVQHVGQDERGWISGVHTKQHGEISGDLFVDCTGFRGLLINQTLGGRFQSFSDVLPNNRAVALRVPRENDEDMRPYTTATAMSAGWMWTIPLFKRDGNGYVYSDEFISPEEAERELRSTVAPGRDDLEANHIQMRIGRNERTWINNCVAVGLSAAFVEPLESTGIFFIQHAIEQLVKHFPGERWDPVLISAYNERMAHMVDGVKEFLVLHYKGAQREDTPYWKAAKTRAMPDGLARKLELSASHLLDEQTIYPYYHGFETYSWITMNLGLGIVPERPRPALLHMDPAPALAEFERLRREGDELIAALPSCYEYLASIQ

[5] = molecular target: T4, PrnA (tryptophan 7-halogenase) (Pseudomonas fluorescens, UniProt P95480); assay: as above; format: biochemical; settings: with C4a-hydroperoxyflavin enzyme; pH 7.2, 25 °C
T4 construct: construct and source details not given
T4 sequence (P95480 whole entry): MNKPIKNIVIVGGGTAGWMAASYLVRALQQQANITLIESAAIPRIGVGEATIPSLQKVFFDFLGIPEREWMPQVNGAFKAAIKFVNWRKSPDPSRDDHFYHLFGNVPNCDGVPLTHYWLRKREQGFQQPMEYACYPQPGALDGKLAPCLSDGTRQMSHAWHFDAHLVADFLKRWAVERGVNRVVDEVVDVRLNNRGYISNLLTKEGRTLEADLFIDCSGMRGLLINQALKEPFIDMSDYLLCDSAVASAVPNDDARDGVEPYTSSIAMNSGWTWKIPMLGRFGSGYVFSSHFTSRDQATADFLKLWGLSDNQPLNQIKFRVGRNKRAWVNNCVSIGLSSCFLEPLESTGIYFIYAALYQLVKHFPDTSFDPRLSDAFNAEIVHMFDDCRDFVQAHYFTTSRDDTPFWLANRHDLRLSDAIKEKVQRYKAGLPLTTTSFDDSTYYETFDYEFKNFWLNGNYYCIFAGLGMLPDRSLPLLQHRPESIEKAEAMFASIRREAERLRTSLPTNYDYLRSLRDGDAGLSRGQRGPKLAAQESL

[6] = molecular target: T1, Thal (tryptophan 6-halogenase); assay: stopped-flow fluorescence, kobs of C4a-hydroxyflavin formation versus halide; format: biochemical; settings: binding to the C4a-hydroperoxyflavin form of the enzyme; two-step model; 20 mM potassium phosphate pH 7.2, 25 °C
Description: stopped-flow fluorescence, kobs of C4a-hydroxyflavin formation versus halide on Thal (tryptophan 6-halogenase)

[7] = molecular target: T1, Thal (tryptophan 6-halogenase); assay: X-ray crystal structure, […] Å; format: binding; settings: apo crystals soaked, 2 days, 25 °C; tryptophan site
[8] = molecular target: T5, (Pseudomonas fluorescens, UniProt P95480); assay: multiple turnover halogenation; format: biochemical
T5 construct: gene prnA; construct and source details not given
T5 sequence (P95480 whole entry): as above

Cc1cc2c(cc1C)N(C[C@H](O)[C@H](O)[C@H](O)COP(=O)(O)OP(=O)(O)OC[C@H]1O[C@@H](n3cnc4c(N)ncnc43)[C@H](O)[C@@H]1O)c1[nH]c(=O)[nH]c(=O)c1N2 [FADH^−]
X-ray crystal structure, 2.40 Å [1]: Clear electron density for FADH^− was observed in both protomers. | stopped-flow absorbance at 380 and 450 nm, C4a-hydroperoxyflavin formation [2]: These data indicate that Lys79Thr could still form C4aOOH-FAD

Cc1cc2nc3c(=O)[nH]c(=O)nc-3n(C[C@H](O)[C@H](O)[C@H](O)COP(=O)(O)OP(=O)(O)OC[C@H]3O[C@@H](n4cnc5c(N)ncnc54)[C@H](O)[C@@H]3O)c2cc1C [FAD]
X-ray crystal structure, 1.91 Å ([3]; flavin site): Thal:FAD:AMP (PDB code 7CU1) were solved with two protomers per asymmetric unit (asu).

I [I^−]
stopped-flow fluorescence, C4a-hydroxyflavin formation [4]: PrnA and PyrH could also react with I^− to form HOI and C4aOH-FAD | stopped-flow fluorescence, C4a-hydroxyflavin formation [5]: PrnA and PyrH could also react with I^− to form HOI and C4aOH-FAD | Kd [6]: 64 ± 21 µM

N[C@@H](Cc1c[nH]c2ccccc12)C(=O)O [tryptophan]
X-ray crystal structure, 1.95 Å [7]: we solved the structure of the Thal:TRP complex (PBD code 7CU0 | multiple turnover halogenation [8]: multiple turnover reactions of Thal were carried out and compared with the reactions of PrnA

Nc1ncnc2c1ncn2[C@@H]1O[C@H](COP(=O)(O)O)[C@@H](O)[C@H]1O [AMP]
X-ray crystal structure, 1.91 Å ([3]; flavin site crystal, AMP not added to the soak): Thal:FAD:AMP (PDB code 7CU1) were solved with two protomers per asymmetric unit (asu).
